Molecular target: Human recombinant PRMT5 in complex with human recombinant MEP50 (Homo sapiens (Human), UniProt O14744)
Assay: PRMT5/MEP50 AlphaLISA enzyme inhibitory assay
Assay type: biochemical
Conditions: PRMT5/MEP50 25 nM, SAM 10 μM, Biotin-H4 peptide 30 nM
Description: Human recombinant PRMT5 in complex with human recombinant MEP50, co-expressed in an insect cell/baculovirus expression system was purchased from Reaction Biology (Malvern, Pa.). […] Anti-H4R3-Me AlphaLISA acceptor beads and Streptavidin labeled AlphaLISA donor beads were obtained from PerkinElmer (Waltham, Mass.). S-adenosylmethionine (SAM), Tween20, dimethylsulfoxide (DMSO), and Tris buffer were obtained from Sigma at the highest level of purity available.
General Procedure for PRMT5/MEP50 AlphaLISA Enzyme Inhibitory Assays: Assays were performed in the buffer consisting of 50 mM Tris, pH 8.5, 5 mM MgCl2, 50 mM NaCl with 0.01% Tween20 and 1 mM DTT added right before the assay. 2.5 μL of compound solution in the assay buffer with 4% DMSO and 5 μL of PRMT5/MRP50 complex/SAM mixture solution in the assay buffer which was pre-incubated for 30 minutes were added into a white low volume 384 well microtiter plate. This mixture solution was incubated for 15 minutes with gentle shaking at room temperature. Methyl transfer reaction was initiated by adding 2.5 μL of Biotin-H4 (1-21) peptide substrate solution in the assay buffer. Final concentrations of PRMT5/MEP50, SAM, Biotin-H4 peptide substrate, and DMSO were 25 nM, 10 μM, 30 nM, and 1%, respectively. The reaction was allowed to perform for 120 minutes in dark with gentle shaking at room temperature after which 5 μL of Anti-H4R3-Me AlphaLISA acceptor beads in detection buffer from the manufacturer was added into the reaction mixture followed by incubation for 60 minutes. 10 μL of Streptavidin labeled AlphaLISA donor beads in detection buffer was added into the mixture followed by 30 minute incubation. Final acceptor and donor beads concentrations were 10 μg/mL. Plates were read on an Envision multimode plate reader from PerkinElmer (Waltham Mass., USA) with an excitation wavelength of 680 nm and emission wavelength of 615 nm. IC50 values of inhibitors were obtained by fitting the fluorescence intensity vs inhibitor concentrations in a sigmoidal dose-response curve (variable slopes, four parameters) using Prism 7 (La Jolla, Calif.).

Sequence of Human recombinant PRMT5 in complex with human recombinant MEP50 (O14744 whole entry): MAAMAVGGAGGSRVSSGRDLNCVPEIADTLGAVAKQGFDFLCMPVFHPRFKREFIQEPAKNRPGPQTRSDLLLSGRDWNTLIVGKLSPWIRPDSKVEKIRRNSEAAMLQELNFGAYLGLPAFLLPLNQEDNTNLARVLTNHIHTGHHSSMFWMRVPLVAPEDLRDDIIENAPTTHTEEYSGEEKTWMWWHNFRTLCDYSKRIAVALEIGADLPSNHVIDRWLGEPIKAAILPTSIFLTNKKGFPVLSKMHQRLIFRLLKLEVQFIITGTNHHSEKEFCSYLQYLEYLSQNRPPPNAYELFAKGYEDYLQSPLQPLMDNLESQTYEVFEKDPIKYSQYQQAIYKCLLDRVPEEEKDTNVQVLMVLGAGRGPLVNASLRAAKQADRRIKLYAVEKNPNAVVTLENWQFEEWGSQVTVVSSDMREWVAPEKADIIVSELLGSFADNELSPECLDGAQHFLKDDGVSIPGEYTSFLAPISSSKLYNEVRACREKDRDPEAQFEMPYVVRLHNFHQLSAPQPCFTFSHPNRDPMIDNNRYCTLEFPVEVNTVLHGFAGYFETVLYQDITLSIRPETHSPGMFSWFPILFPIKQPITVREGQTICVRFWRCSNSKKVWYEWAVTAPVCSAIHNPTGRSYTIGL
Sequence of Human recombinant PRMT5 in complex with human recombinant MEP50 (Q9BQA1 whole entry partner): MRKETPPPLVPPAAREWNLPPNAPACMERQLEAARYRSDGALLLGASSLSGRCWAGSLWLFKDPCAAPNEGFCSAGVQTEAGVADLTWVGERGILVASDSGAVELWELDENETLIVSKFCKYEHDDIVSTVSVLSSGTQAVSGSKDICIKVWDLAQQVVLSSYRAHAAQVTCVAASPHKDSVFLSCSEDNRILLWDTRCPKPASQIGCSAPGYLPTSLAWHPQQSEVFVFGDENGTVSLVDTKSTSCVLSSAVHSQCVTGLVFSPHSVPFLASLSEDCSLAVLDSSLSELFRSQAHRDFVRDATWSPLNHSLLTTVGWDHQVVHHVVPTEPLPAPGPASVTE

| Compound | IC50 |
| --- | --- |
| CC(=O)N1CCC(Nc2cc(F)c3c(c2)C(=O)N(C[C@@H](O)CN2CCc4ccccc4C2)CCO3)CC1 [Compound 2b, (S)-7-((1-acetylpiperidin-4-yl)amino)-4-(3-(3,4-dihydroisoquinolin-2(1H)-yl)-2-hydroxypropyl)-9-fluoro-3,4-dihydrobenzo[f][1,4]oxazepin-5(2H)-one] | 159 nM |
| O=c1c2cc(NC3COC3)ccc2ncn1CC(O)CN1CCc2ccccc2C1 (stereo not shown) [Compound 3, 3-(3-(3,4-dihydroisoquinolin-2(1H)-yl)-2-hydroxypropyl)-6-(oxetan-3-ylamino)quinazolin-4(3H)-one] | 568 nM |
| O=c1c2cc(NC3COC3)ccc2ccn1CC(O)CN1CCc2ccccc2C1 (stereo not shown) [Compound 4, 2-(3-(3,4-dihydroisoquinolin-2(1H)-yl)-2-hydroxypropyl)-7-(oxetan-3-ylamino)isoquinolin-1(2H)-one] | 303 nM |
| CS(=O)(=O)N1CC(Nc2ccc3c(c2)C(=O)N(C[C@@H](O)CN2CCc4ccccc4C2)CC3)C1 [Compound 8, (S)-2-(3-(3,4-dihydroisoquinolin-2(1H)-yl)-2-hydroxypropyl)-7-((1-(methylsulfonyl)azetidin-3-yl)amino)-3,4-dihydroisoquinolin-1(2H)-one] | 232 nM |
| CN1CC(Nc2ccc3c(c2)C(=O)N(C[C@@H](O)CN2CCc4ccccc4C2)CC3)C1 [Compound 9, (S)-2-(3-(3,4-dihydroisoquinolin-2(1H)-yl)-2-hydroxypropyl)-7-((1-methylazetidin-3-yl)amino)-3,4-dihydroisoquinolin-1(2H)-one] | 2440 nM |
| O=C1c2cc(N[C@H]3CCOC3)ccc2CCN1C[C@@H](O)CN1CCc2ccccc2C1 [Compound 10, 2-((S)-3-(3,4-dihydroisoquinolin-2(1H)-yl)-2-hydroxypropyl)-7-(((S)-tetrahydrofuran-3-yl)amino)-3,4-dihydroisoquinolin-1(2H)-one] | 1010 nM |
| O=C1c2cc(N[C@@H]3CCOC3)ccc2CCN1C[C@@H](O)CN1CCc2ccccc2C1 [Compound 11, 2-((S)-3-(3,4-dihydroisoquinolin-2(1H)-yl)-2-hydroxypropyl)-7-(((R)-tetrahydrofuran-3-yl)amino)-3,4-dihydroisoquinolin-1(2H)-one] | 462 nM |
| Cn1cc(Nc2ccc3c(c2)C(=O)N(C[C@@H](O)CN2CCc4ccccc4C2)CC3)cn1 [Compound 12b, (S)-2-(3-(3,4-dihydroisoquinolin-2(1H)-yl)-2-hydroxypropyl)-7-((1-methyl-1H-pyrazol-4-yl)amino)-3,4-dihydroisoquinolin-1(2H)-one] | 235 nM |
| Cn1cc(-c2ccc3c(c2)C(=O)N(C[C@@H](O)CN2CCc4ccccc4C2)CC3)cn1 [Compound 13, (S)-2-(3-(3,4-dihydroisoquinolin-2(1H)-yl)-2-hydroxypropyl)-7-(1-methyl-1H-pyrazol-4-yl)-3,4-dihydroisoquinolin-1(2H)-one] | 578 nM |
| CC1(C)CN(CC(O)CN2CCc3ccccc3C2)C(=O)c2cc(NC3COC3)ccc21 (stereo not shown) [Compound 15, 2-(3-(3,4-dihydroisoquinolin-2(1H)-yl)-2-hydroxypropyl)-4,4-dimethyl-7-(oxetan-3-ylamino)-3,4-dihydroisoquinolin-1(2H)-one] | 217 nM |
| O=C1c2cc(NC3COC3)cnc2CCN1CC(O)CN1CCc2ccccc2C1 (stereo not shown) [Compound 16, 6-(3-(3,4-dihydroisoquinolin-2(1H)-yl)-2-hydroxypropyl)-3-(oxetan-3-ylamino)-7,8-dihydro-1,6-naphthyridin-5(6H)-one] | 447 nM |
| CC(=O)N1CCC(Nc2cc3c(cc2F)OCCN(C[C@H](O)CN2CCc4ccccc4C2)C3=O)CC1 [Compound 17a, (R)-7-((1-acetylpiperidin-4-yl)amino)-4-(3-(3,4-dihydroisoquinolin-2(1H)-yl)-2-hydroxypropyl)-8-fluoro-3,4-dihydrobenzo[f][1,4]oxazepin-5(2H)-one] | 248 nM |
| CC(=O)N1CCC(Nc2cc3c(cc2F)OCCN(C[C@@H](O)CN2CCc4ccccc4C2)C3=O)CC1 [Compound 17b, (S)-7-((1-acetylpiperidin-4-yl)amino)-4-(3-(3,4-dihydroisoquinolin-2(1H)-yl)-2-hydroxypropyl)-8-fluoro-3,4-dihydrobenzo[f][1,4]oxazepin-5(2H)-one] | 722 nM |
| O=C1c2cc(NC3CCOCC3)cnc2CCN1CC(O)CN1CCc2ccccc2C1 (stereo not shown) [Compound 18, 6-(3-(3,4-dihydroisoquinolin-2(1H)-yl)-2-hydroxypropyl)-3-((tetrahydro-2H-pyran-4-yl)amino)-7,8-dihydro-1,6-naphthyridin-5(6H)-one] | 2220 nM |
| CC(=O)N1CCC(Nc2cnc3c(c2)C(=O)N(CC(O)CN2CCc4ccccc4C2)CC3)CC1 (stereo not shown) [Compound 19, 3-((1-acetylpiperidin-4-yl)amino)-6-(3-(3,4-dihydroisoquinolin-2(1H)-yl)-2-hydroxypropyl)-7,8-dihydro-1,6-naphthyridin-5(6H)-one] | 623 nM |
| CC1Cc2ccc(NC3COC3)cc2C(=O)N1CC(O)CN1CCc2ccccc2C1 (stereo not shown) [Compound 21, 2-(3-(3,4-dihydroisoquinolin-2(1H)-yl)-2-hydroxypropyl)-3-methyl-7-(oxetan-3-ylamino)-3,4-dihydroisoquinolin-1(2H)-one] | 480 nM |

The next lines start with the values.

| IC50 | Compound |
| --- | --- |
| 14 nM | CC(=O)N1CCC(Nc2ccc3c(c2)C(=O)N(CC(O)CN2CCc4ccccc4C2)CC3)CC1 (racemic) [Compound 24, 7-((1-acetylpiperidin-4-yl)amino)-2-(3-(3,4-dihydroisoquinolin-2(1H)-yl)-2-hydroxypropyl)-3,4-dihydroisoquinolin-1(2H)-one] |
| 13 nM | O=C1c2cc(Nc3ccnnc3)ccc2OCCN1CC(O)CN1CCc2ccccc2C1 (racemic) [Compound 30, 4-(3-(3,4-dihydroisoquinolin-2(1H)-yl)-2-hydroxypropyl)-7-(pyridazin-4-ylamino)-3,4-dihydrobenzo[f][1,4]oxazepin-5(2H)-one] |
| 97 nM | O=C1c2cc(NC3COC3)ccc2CCN1CC(O)CN1CCc2ccccc2C1 (stereo not shown) [Compound 1, 2-(3-(3,4-dihydroisoquinolin-2(1H)-yl)-2-hydroxypropyl)-7-(oxetan-3-ylamino)-3,4-dihydroisoquinolin-1(2H)-one] |
| 131 nM | O=C1c2cc(NC3COC3)ccc2OCCN1CC(O)CN1CCc2ccccc2C1 (stereo not shown) [Compound 5, 4-(3-(3,4-dihydroisoquinolin-2(1H)-yl)-2-hydroxypropyl)-7-(oxetan-3-ylamino)-3,4-dihydrobenzo[f][1,4]oxazepin-5(2H)-one] |
| 77 nM | CC(=O)N1CC(Nc2ccc3c(c2)C(=O)N(CC(O)CN2CCc4ccccc4C2)CC3)C1 (stereo not shown) [Compound 6, 7-((1-acetylazetidin-3-yl)amino)-2-(3-(3,4-dihydroisoquinolin-2(1H)-yl)-2-hydroxypropyl)-3,4-dihydroisoquinolin-1(2H)-one] |
| 29 nM | Cn1cc(Nc2ccc3c(c2)C(=O)N(CC(O)CN2CCc4ccccc4C2)CC3)cn1 (stereo not shown) [Compound 12] |
| 158 nM | O=C1c2cc(-c3cncnc3)ccc2CCN1CC(O)CN1CCc2ccccc2C1 (stereo not shown) [Compound 14, 2-(3-(3,4-dihydroisoquinolin-2(1H)-yl)-2-hydroxypropyl)-7-(pyrimidin-5-yl)-3,4-dihydroisoquinolin-1(2H)-one] |
| 132 nM | Cn1cc(Nc2cnc3c(c2)C(=O)N(CC(O)CN2CCc4ccccc4C2)CC3)cn1 (stereo not shown) [Compound 20, 6-(3-(3,4-dihydroisoquinolin-2(1H)-yl)-2-hydroxypropyl)-3-((1-methyl-1H-pyrazol-4-yl)amino)-7,8-dihydro-1,6-naphthyridin-5(6H)-one] |
| 21 nM | O=C1c2cc(Nc3cnn(C4COC4)c3)ccc2CCN1CC(O)CN1CCc2ccccc2C1 (stereo not shown) [Compound 22, 2-(3-(3,4-dihydroisoquinolin-2(1H)-yl)-2-hydroxypropyl)-7-((1-(oxetan-3-yl)-1H-pyrazol-4-yl)amino)-3,4-dihydroisoquinolin-1(2H)-one] |
| 61 nM | Cn1ccc(Nc2ccc3c(c2)C(=O)N(CC(O)CN2CCc4ccccc4C2)CC3)n1 (stereo not shown) [Compound 23, 2-(3-(3,4-dihydroisoquinolin-2(1H)-yl)-2-hydroxypropyl)-7-((1-methyl-1H-pyrazol-3-yl)amino)-3,4-dihydroisoquinolin-1(2H)-one] |
| 19 nM | CC(=O)N1CCC(Nc2ccc3c(c2)C(=O)N(C[C@@H](O)CN2CCc4ccccc4C2)CC3)CC1 [Compound 24b, (S)-7-((1-acetylpiperidin-4-yl)amino)-2-(3-(3,4-dihydroisoquinolin-2(1H)-yl)-2-hydroxypropyl)-3,4-dihydroisoquinolin-1(2H)-one] |
| 10 nM | O=C1c2cc(Nc3cnn(C4CCOCC4)c3)ccc2CCN1CC(O)CN1CCc2ccccc2C1 (stereo not shown) [Compound 25, 2-(3-(3,4-dihydroisoquinolin-2(1H)-yl)-2-hydroxypropyl)-7-((1-(tetrahydro-2H-pyran-4-yl)-1H-pyrazol-4-yl)amino)-3,4-dihydroisoquinolin-1(2H)-one] |

Reference: patent US11591326B2, “Inhibitors of protein arginine methyltransferase 5 (PRMT5), pharmaceutical products thereof, and methods thereof” (PHARMABLOCK SCIENCES (NANJING), INC., priority 2018, dated 2023)
